Measured values taken from US12398154B2, “Azaquinazoline pan-KRas inhibitors” (Mirati Therapeutics, Inc., priority 2020, dated 2025).

Legend:
KRas G12D = KRas G12D (Homo sapiens, UniProt P01116, G12D); test: biochemical;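 also: TR-FRET displacement binding assay on KRas, read after a one-hour incubation at room temperature, IC50 fitted from percent-of-control values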
Description: (§1) The ability of a compound to bind to KRas was measured using a TR-FRET displacement assay. […] After a 60-minute incubation at room temperature, the reaction was measured using a BMG LABTECH CLARIO star Plus via TR-FRET. […] The POC values were fit to a 4-parameter IC50 equation and the IC50 value reported.

KRas G12V = KRas G12V (Homo sapiens, UniProt P01116, G12V); test: biochemical;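 also: KRas binding measured by TR-FRET displacement at room temperature, IC50 fitted from percent of control values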
KRas G12V, sequence (P01116 1-169 isoform P01116-2 G12V): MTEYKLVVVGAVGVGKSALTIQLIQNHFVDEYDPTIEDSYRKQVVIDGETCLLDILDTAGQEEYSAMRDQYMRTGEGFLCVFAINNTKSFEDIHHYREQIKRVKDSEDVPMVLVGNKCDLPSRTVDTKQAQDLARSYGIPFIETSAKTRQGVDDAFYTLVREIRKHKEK
Description: as §1

KRas G12R = KRas G12R (Homo sapiens, UniProt P01116, G12R); test: biochemical;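 also: TR-FRET displacement assay of compound binding to KRas, read after one hour at room temperature, potency from a four-parameter fit of percent-of-control values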
KRas G12R, sequence (P01116 1-169 isoform P01116-2 G12R): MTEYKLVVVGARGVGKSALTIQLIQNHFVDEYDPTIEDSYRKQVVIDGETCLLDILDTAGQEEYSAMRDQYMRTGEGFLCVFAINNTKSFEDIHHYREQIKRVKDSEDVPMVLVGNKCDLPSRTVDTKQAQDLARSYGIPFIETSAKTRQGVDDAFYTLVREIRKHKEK
Description: as §1

pERK in MKN1 cells = test: Inhibition of KRas phosphorylation of ERK (Cisbio HTRF pERK assay); conditions: Homo sapiens, MKN-1, 3 h, read-out: Inhibition (HTRF IC50) of KRas-mediated Phosphorylation of ERK, MKN1
pERK in PSN1 cells = test: as above; conditions: Homo sapiens, PSN1, 3 h, read-out: Inhibition (HTRF IC50) of KRas-mediated Phosphorylation of ERK, PSN1
pERK in ASPC1 cells = test: as above; conditions: Homo sapiens, ASPC1, read-out: Inhibition (HTRF IC50) of KRas-mediated Phosphorylation of ERK, AsPC-1
KRas G12A = KRas G12A (Homo sapiens, UniProt P01116, G12A); test: biochemical;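 also: binding to KRas measured by TR-FRET displacement after one hour at room temperature, IC50 from a four-parameter fit of percent-of-control values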
KRas G12A, sequence (P01116 1-169 isoform P01116-2 G12A): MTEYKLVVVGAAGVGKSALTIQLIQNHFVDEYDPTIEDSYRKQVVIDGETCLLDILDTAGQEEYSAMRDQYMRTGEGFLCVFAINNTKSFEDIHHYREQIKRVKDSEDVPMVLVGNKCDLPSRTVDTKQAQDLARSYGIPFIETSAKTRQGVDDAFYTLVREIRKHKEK
Description: as §1

KRas G12S = KRas G12S (Homo sapiens, UniProt P01116, G12S); test: biochemical;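 also: TR-FRET displacement binding to KRas, read after one hour incubation at room temperature, IC50 from four-parameter fit of percent of control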
KRas G12S, sequence (P01116 1-169 isoform P01116-2 G12S): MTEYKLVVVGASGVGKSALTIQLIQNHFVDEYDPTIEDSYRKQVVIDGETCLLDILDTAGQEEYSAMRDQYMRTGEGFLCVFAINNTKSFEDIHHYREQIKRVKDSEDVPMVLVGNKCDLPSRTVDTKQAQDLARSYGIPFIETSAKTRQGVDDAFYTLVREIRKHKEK
Description: as §1

KRas G12C = KRas G12C (Homo sapiens, UniProt P01116, G12C); test: biochemical;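 also: binding to KRas assessed by TR-FRET displacement after one hour incubation at room temperature, potency fitted from percent-of-control values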
KRas G12C, sequence (P01116 1-169 isoform P01116-2 G12C): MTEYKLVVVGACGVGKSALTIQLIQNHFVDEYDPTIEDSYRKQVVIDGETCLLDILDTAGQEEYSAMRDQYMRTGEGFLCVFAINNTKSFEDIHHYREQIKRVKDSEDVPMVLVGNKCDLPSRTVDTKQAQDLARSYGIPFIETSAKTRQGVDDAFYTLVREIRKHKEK
Description: as §1

KRas WT = KRas WT (Homo sapiens, UniProt P01116); test: biochemical;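 also: binding to KRas read as TR-FRET displacement after a one-hour room-temperature incubation, IC50 derived from percent-of-control values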
KRas WT, sequence (P01116 1-169 isoform P01116-2): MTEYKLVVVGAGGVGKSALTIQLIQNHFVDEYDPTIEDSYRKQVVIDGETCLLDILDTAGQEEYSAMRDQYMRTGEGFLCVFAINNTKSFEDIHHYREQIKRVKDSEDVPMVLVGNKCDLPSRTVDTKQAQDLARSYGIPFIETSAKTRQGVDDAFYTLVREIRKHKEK
Description: as §1

KRas G12D, sequence (P01116 1-169 isoform P01116-2 G12D): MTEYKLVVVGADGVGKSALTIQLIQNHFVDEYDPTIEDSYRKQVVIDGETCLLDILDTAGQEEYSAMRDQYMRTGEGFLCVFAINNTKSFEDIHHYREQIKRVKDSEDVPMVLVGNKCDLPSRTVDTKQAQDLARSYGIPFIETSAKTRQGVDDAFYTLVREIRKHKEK

| Compound | IC50 (KRas G12D) [µM] | IC50 (KRas G12V) [µM] | IC50 (KRas G12R) [µM] | IC50 (pERK in MKN1 cells) [µM] | IC50 (pERK in PSN1 cells) [µM] | IC50 (pERK in ASPC1 cells) [µM] | IC50 (KRas G12A) [µM] | IC50 (KRas G12S) [µM] | IC50 (KRas G12C) [µM] | IC50 (KRas WT) [µM] |
| --- | --- | --- | --- | --- | --- | --- | --- | --- | --- | --- |
| CCc1c(F)ccc2cc(O)cc(-c3ncc4c(NC[C@H]5COC[C@H]5O)nc(OC[C@@]56CCCN5C[C@H](F)C6)nc4c3F)c12 (single isomer, unassigned) [Example 492] | 0.084 | 0.015 | 0.014 | 0.254 | ≥ 10 | 3.52 |  |  |  |  |
| CCc1c(F)ccc2cc(O)cc(-c3ncc4c(NC[C@@H]5COC[C@@H]5O)nc(OC[C@@]56CCCN5C[C@H](F)C6)nc4c3F)c12 (single isomer, unassigned) [Example 493] | 0.13 | 0.011 | 0.009 | 0.622 | ≥ 10 | ≥ 10 |  |  |  |  |
| CCc1c(F)ccc2cc(O)cc(-c3ncc4c(N5C[C@@H]6C(CO)NC(=O)[C@@H]6C5)nc(OC[C@@]56CCCN5C[C@H](F)C6)nc4c3F)c12 (stereo in doubt) [Example 488, (3R,3aR,6aS)-5-(7-(8-ethyl-7-fluoro-3-hydroxynaphthalen-1-yl)-8-fluoro-2-(((2R,7aS)-2-fluorotetrahydro-1H-pyrrolizin-7a(5H)-yl)methoxy)pyrido[4,3-d]pyrimidin-4-yl)-3-(hydroxymethyl)hexahydropyrrolo[3,4-c]pyrrol-1(2H)-one] | 0.022 | 0.027 | 0.051 | ≥ 10 | ≥ 10 | ≥ 10 |  |  |  |  |
| CCc1c(F)ccc2cc(O)cc(-c3ncc4c(N5CCC[C@](C)(O)C5)nc(OC[C@@]56CCCN5C[C@H](F)C6)nc4c3F)c12 [Example 4] |  |  |  |  | ≥ 10 |  |  |  |  |  |
| O=C1CC2(CCCN(c3nc(OCC45CCCN4CCC5)nc4c(F)c(-c5cccc6cccc(F)c56)ncc34)C2)CN1 (centres unmarked) [Example 20, 7-(8-fluoro-7-(8-fluoronaphthalen-1-yl)-2-((hexahydro-1H-pyrrolizin-7a-yl)methoxy)pyrido[4,3-d]pyrimidin-4-yl)-2,7-diazaspiro[4.5]decan-3-one] | 2.39 | 3.4 | 7.39 |  |  |  | 2.78 | 2.98 | 3.18 | 2.97 |
| Fc1c(-c2cccc3cccc(F)c23)ncc2c(Nc3cnc4cnccn34)nc(OCC34CCCN3CCC4)nc12 [Example 34, 8-fluoro-7-(8-fluoronaphthalen-1-yl)-N-(imidazo[1,2-a]pyrazin-3-yl)-2-((tetrahydro-1H-pyrrolizin-7a(5H)-yl)methoxy)pyrido[4,3-d]pyrimidin-4-amine] | 11.1 | 15 | ≥ 100 |  |  |  | 48.7 | 53.5 | 35 | 28.1 |
| Fc1c(-c2cccc3cccc(F)c23)ncc2c(N3CC(n4ccnc4)C3)nc(OCC34CCCN3CCC4)nc12 [Example 75, 4-(3-(1H-imidazol-1-yl)azetidin-1-yl)-8-fluoro-7-(8-fluoronaphthalen-1-yl)-2-((hexahydro-1H-pyrrolizin-7a-yl)methoxy)pyrido[4,3-d]pyrimidine] | 63.1 | 2.39 | 0.977 |  |  |  |  |  | 1.83 |  |
| O=C1NC2(CCCN(c3nc(OCC45CCCN4CCC5)nc4c(F)c(-c5cccc6cccc(F)c56)ncc34)C2)CO1 (centres unmarked) [Example 227, 7-(8-fluoro-7-(8-fluoronaphthalen-1-yl)-2-((hexahydro-1H-pyrrolizin-7a-yl)methoxy)pyrido[4,3-d]pyrimidin-4-yl)-3-oxa-1,7-diazaspiro[4.5]decan-2-one] | 1.24 | 2.43 | 3.06 |  |  |  |  |  | 2.72 | 3.39 |
| CC(Nc1nc(OCC23CCCN2CCC3)nc2c(F)c(-c3cccc4cccc(F)c34)ncc12)c1c[nH]c2ncccc12 (centres unmarked) [Example 229, N-(1-(1H-pyrrolo[2,3-b]pyridin-3-yl)ethyl)-8-fluoro-7-(8-fluoronaphthalen-1-yl)-2-((tetrahydro-1H-pyrrolizin-7a(5H)-yl)methoxy)pyrido[4,3-d]pyrimidin-4-amine] | 85.3 | 3.12 | 2.12 |  |  |  |  |  | 4.72 | 36.8 |
| Fc1c(-c2cccc3cccc(F)c23)ncc2c(N3CCCC4(CSC4)C3)nc(OCC34CCCN3CCC4)nc12 [Example 262, 6-(8-fluoro-7-(8-fluoronaphthalen-1-yl)-2-((hexahydro-1H-pyrrolizin-7a-yl)methoxy)pyrido[4,3-d]pyrimidin-4-yl)-2-thia-6-azaspiro[3.5]nonane] | 0.96 | 1.79 | 1.66 |  |  |  |  |  |  | 1.53 |
| NC(=O)C1COCCN(c2nc(OCC34CCCN3CCC4)nc3c(F)c(-c4cccc5cccc(F)c45)ncc23)C1 (centres unmarked) [Example 270, 4-(8-fluoro-7-(8-fluoronaphthalen-1-yl)-2-((hexahydro-1H-pyrrolizin-7a-yl)methoxy)pyrido[4,3-d]pyrimidin-4-yl)-1,4-oxazepane-6-carboxamide] | 2.63 | 2.1 | 7.59 |  |  |  |  |  | 2.83 | 4.19 |
| CS(=O)(=O)C1COCCN(c2nc(OCC34CCCN3CCC4)nc3c(F)c(-c4cccc5cccc(F)c45)ncc23)C1 (centres unmarked) [Example 271, 4-(8-fluoro-7-(8-fluoronaphthalen-1-yl)-2-((hexahydro-1H-pyrrolizin-7a-yl)methoxy)pyrido[4,3-d]pyrimidin-4-yl)-6-(methylsulfonyl)-1,4-oxazepane] | 2.43 | 2.44 | 7.69 |  |  |  |  |  |  | 3 |
| NC(=O)[C@H]1CCCN(c2nc(OCC34CCCN3CCC4)nc3c(F)c(-c4cccc5cccc(F)c45)ncc23)C1 [Example 273, (S)-1-(8-fluoro-7-(8-fluoronaphthalen-1-yl)-2-((hexahydro-1H-pyrrolizin-7a-yl)methoxy)pyrido[4,3-d]pyrimidin-4-yl)piperidine-3-carboxamide] | 5.15 | 2.31 | 5.2 |  |  |  |  |  |  | 3.07 |
| CN(C)C(=O)n1cc2c(n1)CCCN(c1nc(OCC34CCCN3CCC4)nc3c(F)c(-c4cccc5cccc(F)c45)ncc13)C2 [Example 274, 5-(8-fluoro-7-(8-fluoronaphthalen-1-yl)-2-((hexahydro-1H-pyrrolizin-7a-yl)methoxy)pyrido[4,3-d]pyrimidin-4-yl)-N,N-dimethyl-5,6,7,8-tetrahydropyrazolo[4,3-c]azepine-2(4H)-carboxamide] | 0.375 | 0.867 | 2.76 |  |  |  |  |  |  | 14.7 |
| CC(=O)Nc1cc2n(n1)CCCN(c1nc(OCC34CCCN3CCC4)nc3c(F)c(-c4cccc5cccc(F)c45)ncc13)C2 [Example 275, N-(5-(8-fluoro-7-(8-fluoronaphthalen-1-yl)-2-((hexahydro-1H-pyrrolizin-7a-yl)methoxy)pyrido[4,3-d]pyrimidin-4-yl)-5,6,7,8-tetrahydro-4H-pyrazolo[1,5-a][1,4]diazepin-2-yl)acetamide] | 1.66 | 9.05 | 7.16 |  |  |  |  |  |  | 24.3 |
| O=C(c1cc2n(n1)CCCN(c1nc(OCC34CCCN3CCC4)nc3c(F)c(-c4cccc5cccc(F)c45)ncc13)C2)N1CCOCC1 [Example 276, (5-(8-fluoro-7-(8-fluoronaphthalen-1-yl)-2-((hexahydro-1H-pyrrolizin-7a-yl)methoxy)pyrido[4,3-d]pyrimidin-4-yl)-5,6,7,8-tetrahydro-4H-pyrazolo[1,5-a][1,4]diazepin-2-yl)(morpholino)methanone] | 0.212 | 0.303 | 1.21 |  |  |  |  |  |  | 3.22 |
| O=C(c1cc2n(n1)CCCN(c1nc(OCC34CCCN3CCC4)nc3c(F)c(-c4cccc5cccc(F)c45)ncc13)C2)N1CCC1 [Example 277, azetidin-1-yl(5-(8-fluoro-7-(8-fluoronaphthalen-1-yl)-2-((hexahydro-1H-pyrrolizin-7a-yl)methoxy)pyrido[4,3-d]pyrimidin-4-yl)-5,6,7,8-tetrahydro-4H-pyrazolo[1,5-a][1,4]diazepin-2-yl)methanone] | 0.765 | 1.8 | 4.91 |  |  |  |  |  |  | 5.29 |
| Cc1c(N)nn2c1CN(c1nc(OCC34CCCN3CCC4)nc3c(F)c(-c4cccc5cccc(F)c45)ncc13)CCC2 [Example 278, 5-(8-fluoro-7-(8-fluoronaphthalen-1-yl)-2-((hexahydro-1H-pyrrolizin-7a-yl)methoxy)pyrido[4,3-d]pyrimidin-4-yl)-3-methyl-5,6,7,8-tetrahydro-4H-pyrazolo[1,5-a][1,4]diazepin-2-amine] | 0.801 | 1.99 | 1.86 |  |  |  |  |  |  | 3.67 |
| CCc1c(F)ccc2cc(O)cc(-c3ncc4c(NCCN5CCNC5=O)nc(OC[C@@]56CCCN5C[C@H](F)C6)nc4c3F)c12 [Example 372, 1-(2-((7-(8-ethyl-7-fluoro-3-hydroxynaphthalen-1-yl)-8-fluoro-2-(((2R,7aS)-2-fluorotetrahydro-1H-pyrrolizin-7a(5H)-yl)methoxy)pyrido[4,3-d]pyrimidin-4-yl)amino)ethyl)imidazolidin-2-one] | 0.056 | 0.005 | 0.013 | 0.66 | ≥ 10 |  |  |  |  |  |
